Assay in all cases: relative viability (nuclei count vs DMSO), 5 days (fraction); higher = more cells survive
Compound in the assay “XMD13-2 + Alpelisib”: C1CC1C(=O)NC2=NNC3=C2C=CC(=C3)C4=CC(=CC=C4)C(=O)NC5CC5 [XMD13-2] + Cc1nc(NC(=O)N2CCC[C@H]2C(N)=O)sc1-c1ccnc(C(C)(C)C(F)(F)F)c1 [Alpelisib] (partner 2 µM)
In short, it runs like this:
(§1)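 Lung cancer cell lines were pin-tool dosed in 1536-well plates on the day after seeding, with either a lone drug or a fixed anchor-drug dose plus five library-drug doses (not always all listed) in √10 steps. Nuclei were counted on 4× images after 5 days. Relative viability is the ratio of treated-well to vehicle-well nuclei counts, with each value a median of duplicate plates.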

Compound in the assay “Dasatinib + AZD7762”: Cc1nc(Nc2ncc(C(=O)Nc3c(C)cccc3Cl)s2)cc(N2CCN(CCO)CC2)n1 [Dasatinib] + NC(=O)Nc1cc(-c2cccc(F)c2)sc1C(=O)N[C@H]1CCCNC1 [AZD7762] (partner 0.2 µM)
In short, it runs like this: as §1

Compound in the assay “ALW-II-49-7 + Decitabine”: Cc1ccc(C(=O)Nc2cccc(C(F)(F)F)c2)cc1Nc1cncc(C(N)=O)c1 [ALW-II-49-7] + Nc1ncn([C@H]2C[C@H](O)[C@@H](CO)O2)c(=O)n1 [Decitabine] (partner 2 µM)
In short, it runs like this: as §1

Compound in assay [1]: Cc1ccc(C(=O)Nc2cccc(C(F)(F)F)c2)cc1Nc1cncc(C(N)=O)c1 [ALW-II-49-7] + CC(=O)c1c(C)c2cnc(Nc3ccc(N4CCNCC4)cn3)nc2n(C2CCCC2)c1=O [Palbociclib] (partner 0.5 µM)
Put shortly: as §1

Our source for the relative viability values is the supplement of paper PMC10307832.

In the case of NCI-H1299, the relative viability in the assay with XMD13-2 + Alpelisib (first compound 0.05 µM) was found to be 1.08; with XMD13-2 + Alpelisib (first compound 0.1581 µM), 1.08; with XMD13-2 + Alpelisib (first compound 0.5 µM), 1.09; with XMD13-2 + Alpelisib (first compound 1.581 µM), 1.08; with XMD13-2 + Alpelisib (first compound 5 µM), 1.09.
As for NCI-H1563, the relative viability worked out at 1.02 with XMD13-2 + Alpelisib (first compound 0.05 µM); 1 with XMD13-2 + Alpelisib (first compound 0.1581 µM); 0.941 in the assay with XMD13-2 + Alpelisib (first compound 0.5 µM); 0.894 in the assay with XMD13-2 + Alpelisib (first compound 1.581 µM); 0.985 with XMD13-2 + Alpelisib (first compound 5 µM).
For NCI-H1648, the relative viability with Dasatinib + AZD7762 (first compound 0.005 µM) was 0.677; with Dasatinib + AZD7762 (first compound 0.01581 µM) it was 0.725; with Dasatinib + AZD7762 (first compound 0.05 µM) it was 0.724; in the assay with Dasatinib + AZD7762 (first compound 0.1581 µM), 0.369; with Dasatinib + AZD7762 (first compound 0.5 µM), 0.254; with ALW-II-49-7 + Decitabine (first compound 0.08 µM), 0.545. Further, the relative viability with ALW-II-49-7 + Decitabine (first compound 0.253 µM) amounted to 0.48; with ALW-II-49-7 + Decitabine (first compound 0.8 µM) it was 0.531; with ALW-II-49-7 + Decitabine (first compound 2.53 µM), 0.454; with ALW-II-49-7 + Decitabine (first compound 8 µM), 0.509; in assay [1] (first compound 0.08 µM) it was 0.241; in assay [1] (first compound 0.253 µM), 0.251. Moreover, the relative viability came to 0.264 in assay [1] (first compound 0.8 µM), 0.246 in assay [1] (first compound 2.53 µM) and 0.251 in assay [1] (first compound 8 µM).
Consider NCI-H1650, for which the relative viability in the assay with ALW-II-49-7 + Decitabine (first compound 0.08 µM) is 0.447; with ALW-II-49-7 + Decitabine (first compound 0.253 µM) it was 0.399; with ALW-II-49-7 + Decitabine (first compound 0.8 µM), 0.432; in the assay with ALW-II-49-7 + Decitabine (first compound 2.53 µM), 0.462; with ALW-II-49-7 + Decitabine (first compound 8 µM), 0.493; in assay [1] (first compound 0.08 µM), 0.328. The relative viability in assay [1] (first compound 0.253 µM) is 0.314; in assay [1] (first compound 0.8 µM) it was 0.338; in assay [1] (first compound 2.53 µM) it was 0.397; in assay [1] (first compound 8 µM), 0.41.
NCI-H1703: the relative viability was determined as 0.128 with Dasatinib + AZD7762 (first compound 0.005 µM); 0.121 with Dasatinib + AZD7762 (first compound 0.01581 µM); 0.139 in the assay with Dasatinib + AZD7762 (first compound 0.05 µM); 0.116 in the assay with Dasatinib + AZD7762 (first compound 0.1581 µM); 0.13 in the assay with Dasatinib + AZD7762 (first compound 0.5 µM); 0.356 in the assay with XMD13-2 + Alpelisib (first compound 0.05 µM). In addition, the relative viability with XMD13-2 + Alpelisib (first compound 0.1581 µM) worked out at 0.405; with XMD13-2 + Alpelisib (first compound 0.5 µM) it was 0.292; in the assay with XMD13-2 + Alpelisib (first compound 1.581 µM) it was 0.279; in the assay with XMD13-2 + Alpelisib (first compound 5 µM), 0.406.
Regarding NCI-H2009, the relative viability with XMD13-2 + Alpelisib (first compound 0.05 µM) is 1.23; with XMD13-2 + Alpelisib (first compound 0.1581 µM), 1.14; with XMD13-2 + Alpelisib (first compound 0.5 µM) it was 1.22; in the assay with XMD13-2 + Alpelisib (first compound 1.581 µM), 1.15; with XMD13-2 + Alpelisib (first compound 5 µM), 1.23; with ALW-II-49-7 + Decitabine (first compound 0.08 µM), 0.326. Moreover, the relative viability is 0.446 with ALW-II-49-7 + Decitabine (first compound 0.253 µM); 0.368 with ALW-II-49-7 + Decitabine (first compound 0.8 µM); 0.438 with ALW-II-49-7 + Decitabine (first compound 2.53 µM); 0.467 in the assay with ALW-II-49-7 + Decitabine (first compound 8 µM); 0.211 in assay [1] (first compound 0.08 µM); 0.264 in assay [1] (first compound 0.253 µM). For the same cell line, the relative viability in assay [1] (first compound 0.8 µM) stood at 0.242; in assay [1] (first compound 2.53 µM) it was 0.203; in assay [1] (first compound 8 µM), 0.199.
For the cell line NCI-H2023, the relative viability in the assay with XMD13-2 + Alpelisib (first compound 0.05 µM) was 0.661; with XMD13-2 + Alpelisib (first compound 0.1581 µM), 0.618; with XMD13-2 + Alpelisib (first compound 0.5 µM) it was 0.52; in the assay with XMD13-2 + Alpelisib (first compound 1.581 µM), 0.53; with XMD13-2 + Alpelisib (first compound 5 µM) it was 0.617; in the assay with ALW-II-49-7 + Decitabine (first compound 0.08 µM) it was 0.226. Further, the relative viability with ALW-II-49-7 + Decitabine (first compound 0.253 µM) stood at 0.214; with ALW-II-49-7 + Decitabine (first compound 0.8 µM), 0.255; with ALW-II-49-7 + Decitabine (first compound 2.53 µM) it was 0.249; with ALW-II-49-7 + Decitabine (first compound 8 µM), 0.347; in assay [1] (first compound 0.08 µM) it was 0.325; in assay [1] (first compound 0.253 µM), 0.344. Further, the relative viability turned out to be 0.36 in assay [1] (first compound 0.8 µM), 0.4 in assay [1] (first compound 2.53 µM) and 0.428 in assay [1] (first compound 8 µM).
With NCI-H2228, the relative viability was 0.768 with XMD13-2 + Alpelisib (first compound 0.05 µM); 0.716 with XMD13-2 + Alpelisib (first compound 0.1581 µM); 0.771 with XMD13-2 + Alpelisib (first compound 0.5 µM); 0.772 in the assay with XMD13-2 + Alpelisib (first compound 1.581 µM); 0.655 with XMD13-2 + Alpelisib (first compound 5 µM); 0.602 in assay [1] (first compound 0.08 µM). Further, the relative viability in assay [1] (first compound 0.253 µM) came out at 0.416; in assay [1] (first compound 0.8 µM), 0.645; in assay [1] (first compound 2.53 µM), 0.812; in assay [1] (first compound 8 µM), 0.596.
Turning to NCI-H2342, the relative viability in the assay with Dasatinib + AZD7762 (first compound 0.005 µM) worked out at 0.469; with Dasatinib + AZD7762 (first compound 0.01581 µM) it was 0.384; with Dasatinib + AZD7762 (first compound 0.05 µM) it was 0.383; with Dasatinib + AZD7762 (first compound 0.1581 µM), 0.341; with Dasatinib + AZD7762 (first compound 0.5 µM), 0.315; with ALW-II-49-7 + Decitabine (first compound 0.08 µM), 0.714. The relative viability stood at 0.767 with ALW-II-49-7 + Decitabine (first compound 0.253 µM); 0.697 with ALW-II-49-7 + Decitabine (first compound 0.8 µM); 0.693 in the assay with ALW-II-49-7 + Decitabine (first compound 2.53 µM); 0.783 with ALW-II-49-7 + Decitabine (first compound 8 µM); 0.496 in assay [1] (first compound 0.08 µM); 0.541 in assay [1] (first compound 0.253 µM). Also, the relative viability in assay [1] (first compound 0.8 µM) came to 0.515; in assay [1] (first compound 2.53 µM) it was 0.499; in assay [1] (first compound 8 µM), 0.488.
Regarding SK-LU-1, the relative viability amounted to 1.3 in the assay with XMD13-2 + Alpelisib (first compound 0.05 µM); 1.09 with XMD13-2 + Alpelisib (first compound 0.1581 µM); 1.27 with XMD13-2 + Alpelisib (first compound 0.5 µM); 0.945 with XMD13-2 + Alpelisib (first compound 1.581 µM); 0.6 with XMD13-2 + Alpelisib (first compound 5 µM); 0.658 with ALW-II-49-7 + Decitabine (first compound 0.08 µM). Further, the relative viability came to 0.61 with ALW-II-49-7 + Decitabine (first compound 0.253 µM); 0.489 with ALW-II-49-7 + Decitabine (first compound 0.8 µM); 0.639 with ALW-II-49-7 + Decitabine (first compound 2.53 µM); 0.5 with ALW-II-49-7 + Decitabine (first compound 8 µM); 0.332 in assay [1] (first compound 0.08 µM); 0.35 in assay [1] (first compound 0.253 µM). In addition, the relative viability came out at 0.337 in assay [1] (first compound 0.8 µM), 0.26 in assay [1] (first compound 2.53 µM) and 0.323 in assay [1] (first compound 8 µM).
Turning to SK-MES-1, the relative viability was found to be 0.935 with XMD13-2 + Alpelisib (first compound 0.05 µM); 0.922 with XMD13-2 + Alpelisib (first compound 0.1581 µM); 0.869 with XMD13-2 + Alpelisib (first compound 0.5 µM); 0.876 with XMD13-2 + Alpelisib (first compound 1.581 µM); 1.04 with XMD13-2 + Alpelisib (first compound 5 µM); 0.354 with ALW-II-49-7 + Decitabine (first compound 0.08 µM). Also, the relative viability in the assay with ALW-II-49-7 + Decitabine (first compound 0.253 µM) came to 0.35; with ALW-II-49-7 + Decitabine (first compound 0.8 µM) it was 0.473; with ALW-II-49-7 + Decitabine (first compound 2.53 µM), 0.445; with ALW-II-49-7 + Decitabine (first compound 8 µM) it was 0.398; in assay [1] (first compound 0.08 µM), 0.344; in assay [1] (first compound 0.253 µM), 0.314. In addition, the relative viability was 0.284 in assay [1] (first compound 0.8 µM), 0.315 in assay [1] (first compound 2.53 µM) and 0.22 in assay [1] (first compound 8 µM).
Consider SW 1573, for which the relative viability stood at 1.03 with XMD13-2 + Alpelisib (first compound 0.05 µM); 0.711 with XMD13-2 + Alpelisib (first compound 0.1581 µM); 1.01 with XMD13-2 + Alpelisib (first compound 0.5 µM); 0.676 with XMD13-2 + Alpelisib (first compound 1.581 µM); 0.666 in the assay with XMD13-2 + Alpelisib (first compound 5 µM); 0.442 with ALW-II-49-7 + Decitabine (first compound 0.08 µM). Further, the relative viability in the assay with ALW-II-49-7 + Decitabine (first compound 0.253 µM) worked out at 0.601; in the assay with ALW-II-49-7 + Decitabine (first compound 0.8 µM), 0.654; in the assay with ALW-II-49-7 + Decitabine (first compound 2.53 µM), 0.44; with ALW-II-49-7 + Decitabine (first compound 8 µM), 0.423; in assay [1] (first compound 0.08 µM), 0.347; in assay [1] (first compound 0.253 µM) it was 0.489. Further, the relative viability came to 0.373 in assay [1] (first compound 0.8 µM), 0.347 in assay [1] (first compound 2.53 µM) and 0.319 in assay [1] (first compound 8 µM).
